The source of these data is patent US8466157B2, “Proteasome inhibitors having chymotrypsin-like activity” (University of South Florida, priority 2009, dated 2013).

“And” between values parts separate entries of the source, which are not always exact repeats. Equal entries are not always repeated. Where two headings read alike, the source gives them in different places.

Series [1] deals with T1, chymotrypsin-like activity of the purified rabbit 20S proteasome (Oryctolagus cuniculus, UniProt G1T4Q9).
T1 sequence (G1T4Q9 1-263): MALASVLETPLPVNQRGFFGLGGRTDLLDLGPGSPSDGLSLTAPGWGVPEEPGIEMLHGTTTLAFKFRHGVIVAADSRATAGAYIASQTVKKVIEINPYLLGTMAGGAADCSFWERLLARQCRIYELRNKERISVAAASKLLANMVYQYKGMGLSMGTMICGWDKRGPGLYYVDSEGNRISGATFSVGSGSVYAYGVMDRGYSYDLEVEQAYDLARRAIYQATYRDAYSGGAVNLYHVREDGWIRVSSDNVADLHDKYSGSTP
Description: 20S proteasome inhibition assay, fluorogenic substrate Suc-Leu-Leu-Val-Tyr-AMC.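 On all read-outs here: enzyme and 20 µM substrate incubated 1 h at 37 °C in Tris-HCl buffer pH 7.6, fluorogenic read-out, inhibition calculated against vehicle control.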 Format: biochemical. The note with it: for proteasome inhibitory activity, SAR statement in words: chymotrypsin-like activity, compared with lead or analogue; for decrease of proteasome inhibition activity: 14u, 14v vs linear-chain analogues, 14q vs lead compound 10a.
Description: 20S Proteasome Inhibition Assay
In our work, we used chymotrypsin-like substrate Suc-Leu-Leu-Val-Tyr-AMC to test the proteasome inhibition activity of the synthesized compounds.
The assay was conducted by using a fluorogenic peptide as substrate to test synthesized compounds for inhibitory activity against the chymotrypsin-like activity of the purified rabbit 20S proteasome. Briefly, 70 ng of purified 20S proteasome was incubated with 20 μM Suc-Leu-Leu-Val-Tyr-AMC for 1 hour at 37° C. in 100 μl of assay buffer (50 mM Tris-HCl, pH 7.6) with or without inhibitors. […] The inhibitory activity of the compounds was calculated based on vehicle control.

Series [2] concerns the target T2, CT-L (Homo sapiens, UniProt P28074).
T2 construct: endogenous in cells
T2 sequence (P28074 60-263): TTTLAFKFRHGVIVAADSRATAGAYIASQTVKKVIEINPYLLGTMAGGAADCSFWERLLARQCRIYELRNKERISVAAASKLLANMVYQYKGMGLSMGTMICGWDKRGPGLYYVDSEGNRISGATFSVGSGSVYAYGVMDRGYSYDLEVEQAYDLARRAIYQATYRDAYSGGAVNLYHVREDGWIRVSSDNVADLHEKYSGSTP
The series is described as follows: Inhibition of CT-L in cell culture. Format: cell-based.

The mark [3] stands for this setting: individual determinations (runs M-1096, M-1098, M-1099, AK or dated), read-out: Chymotrypsin-like Activity IC50.
[4] abbreviates: mean of the individual determinations, read-out: Chymotrypsin-like Activity IC50 (μM), mean ± spread (n).
The mark [5] stands for this setting: read-out: IC50 (μM)* In Cell culture against CT-L.

The IC50 is the point on the concentration scale where inhibition reaches its midpoint. A word on the melting point: it is the temperature of the solid-liquid transition. As for `O=C1C(N2CCOCC2)=C/C(=N\S(=O)(=O)c2cccs2)c2ccccc21` [YG1-129, N-(3-morpholino-4-oxonaphthalen-1(4H)-ylidene)thiophene-2-sulfonamide], the melting point is 195 °C (dec.). Also, the IC50 in series [1] (setting [3]) was > 10 µM.

Take `COC(=O)CCSC1=C/C(=N\S(=O)(=O)c2cccs2)c2ccccc2C1=O` [8b, Methyl 3-(1-oxo-4-(thiophen-2-ylsulfonylimino)-1,4-dihydronaphthalen-2-ylthio) propanoate]: the melting point lay within 140 to 142 °C.

For the compound `O=C(O)CSc1cc(NS(=O)(=O)c2ccc(Cl)s2)c2ccccc2c1O` [YG1-153, 2-(4-(5-chlorothiophene-2-sulfonamido)-1-hydroxynaphthalen-2-ylthio)acetic acid], the IC50 in series [1] (setting [3]) is 0.73 µM and 2.42 µM and 2.7 µM and 2.3 µM and 2.2 µM; in series [1] (setting [4]), 2.07 µM; in series [2] (setting [5]), 8 µM and 10 µM.

Regarding `O=C(O)CSc1cc(NS(=O)(=O)c2cccs2)c2ccccc2c1O` [HLM008182, 2-(1-hydroxy-4-(thiophene-2-sulfonamido)naphthalen-2-ylthio)acetic acid], in series [1], the “proteasome inhibitory activity, SAR statement in words” value (from here on “proteasome inhibitory activity”) is recorded as “comparable proteasome inhibition activity”. In addition, the IC50 in series [1] (setting [4]) was 2.2 µM; in series [1] (sample kept r.t. 2 weeks in DMSO, read-out: Chymotrypsin-like Activity IC50 (μM), r.t. 2 weeks in DMSO (converted)) it was 2.76 µM and 1.64 µM; in series [2] (listed as YG1-066, read-out: IC50 (μM)* In Cell culture against CT-L) it was 7.3 µM; in series [2] (setting [5]), 8.9 µM.

On to `O=S(=O)(Nc1cc(Sc2ncn[nH]2)c(O)c2ccccc12)c1cccs1` [YG1-159-2, N-(3-(1H-1,2,4-triazol-5-ylthio)-4-hydroxynaphthalen-1-yl)thiophene-2-sulfonamide], for which the “proteasome inhibitory activity” value in series [1] was “comparable inhibition potency”. The IC50 is 1.4 µM and 6.55 µM and 7.4 µM and 5.6 µM and 6.6 µM and 0.85 µM and 1.12 µM in series [1] (setting [3]); 4.22 µM in series [1] (setting [4]); 4.8 µM and 5.1 µM in series [2] (setting [5]).

With `O=C(O)c1ccccc1Sc1cc(NS(=O)(=O)c2cccs2)c2ccccc2c1O` [YG1-155, 2-(1-hydroxy-4-(thiophene-2-sulfonamido)naphthalen-2-ylthio)benzoic acid], the melting point is 215 °C (dec.). The IC50 in series [1] (setting [3]) was 1.12 µM and 4.6 µM and 5.32 µM and 7.7 µM and 7.1 µM and 1.04 µM and 1.5 µM. In addition, the IC50 in series [1] (setting [4]) was found to be 4.05 µM.

Compound `O=S(=O)(Nc1cc(I)c(O)c2ccccc12)c1cccs1` [YG1-033, N-(3-iodo-4-hydroxynaphthalen-1-yl)thiophene-2-sulfonamide] came in with a melting point of 134 to 136 °C. For the same compound, the IC50 in series [1] (setting [3]) is 26 µM and > 100 µM and 28 µM.

For the compound `Cn1nnnc1Sc1cc(NS(=O)(=O)c2cccs2)c2ccccc2c1O` [YG1-159-1, N-(4-hydroxy-3-(1-methyl-1H-tetrazol-5-ylthio)naphthalen-1-yl)thiophene-2-sulfonamide], the “proteasome inhibitory activity” value in series [1] is listed as “comparable inhibition potency”. The IC50 is 2.11 µM and 6.45 µM and 6.6 µM and 6.55 µM and 1.54 µM and 2.18 µM in series [1] (setting [3]); 6.4 µM in series [2] (setting [5]).

`COC(=O)CCSc1cc(NS(=O)(=O)c2cccs2)c2ccccc2c1O` [9b, Methyl 3-(1-hydroxy-4-(thiophene-2-sulfonamido)naphthalen-2-ylthio)propanoate] gave a melting point of 117 to 119 °C.

Turning to `O=C1C(Sc2ncn[nH]2)=C/C(=N\S(=O)(=O)c2cccs2)c2ccccc21` [YG1-158-2, N-(3-(1H-1,2,4-triazol-5-ylthio)-4-oxonaphthalen-1(4H)-ylidene)thiophene-2-sulfonamide], the melting point is 197 °C (dec.). Besides, the IC50 in series [1] (setting [3]) is 1.34 µM and 4.38 µM and 3.85 µM and 2.1 µM and 2.09 µM. The IC50 in series [1] (setting [4]) turned out to be 2.75 µM.

The compound `CC(Sc1cc(NS(=O)(=O)c2ccc3ccccc3c2)c2ccccc2c1O)C(=O)O` (centres unmarked) [YG2-024-2, 2-(1-hydroxy-4-(naphthalene-2-sulfonamido)naphthalen-2-ylthio)propanoic acid] gave a melting point of 176 to 178 °C. In addition, the “decrease of proteasome inhibition activity” value in series [1] was ~2 fold. In addition, the IC50 in series [1] (setting [3]) is 9.6 µM and 8.45 µM.

The compound `CC(Sc1cc(NS(=O)(=O)c2ccc(Cl)cc2)c2ccccc2c1O)C(=O)O` (centres unmarked) [YG2-024-1, 2-(4-(4-chlorophenylsulfonamido)-1-hydroxynaphthalen-2-ylthio)propanoic acid] registered a melting point of 177 to 179 °C. The “decrease of proteasome inhibition activity” value in series [1] is ~2 fold. For the same compound, in series [1] (setting [3]), the IC50 is 9.5 µM and > 10 µM and 8 µM.

As for `O=C(O)CSc1cc(NS(=O)(=O)c2ccc(-c3ccccc3)cc2)c2ccccc2c1O` [YG1-152, 2-(4-(biphenyl-4-ylsulfonamido)-1-hydroxynaphthalen-2-ylthio)acetic acid], the IC50 is 0.81 µM and 2.48 µM and 2.28 µM and 1.74 µM and 2.2 µM in series [1] (setting [3]); 1.9 µM in series [1] (value quoted in running text / FIG. 11, read-out: IC50 against chymotrypsin-like proteasome activity); > 100 µM and 83 µM in series [2] (setting [5]).

Turning to `CCOC(=O)CSC1=C/C(=N\S(=O)(=O)c2ccccc2)c2ccccc2C1=O` [YG1-110, Ethyl 2-(1-oxo-4-(phenylsulfonylimino)-1,4-dihydronaphthalen-2-ylthio)acetate], the melting point lay in the range of 93 to 95 °C. For the same compound, the IC50 in series [1] (setting [3]) is 1.04 µM and 1.86 µM and 2.06 µM and 2.35 µM and 3.8 µM. The IC50 in series [1] (setting [4]) was 2.22 µM.

`O=C(O)CSc1cc(NS(=O)(=O)c2ccc3ccccc3c2)c2ccccc2c1O` [YG2-034-2, 2-(1-hydroxy-4-(naphthalene-2-sulfonamido)naphthalen-2-ylthio)acetic acid] displayed a melting point of 185 to 187 °C. For the same compound, the “decrease of proteasome inhibition activity” value in series [1] is recorded as 3 fold. Further, in series [1] (setting [3]), the IC50 is > 10 µM and 4 µM and 5.9 µM.

On to `CCOC(=O)CSc1cc(NS(=O)(=O)c2ccc(-c3ccccc3)cc2)c2ccccc2c1O` [14r, Ethyl 2-(4-(biphenyl-4-ylsulfonamido)-1-hydroxynaphthalen-2-ylthio)acetate], for which the melting point lay within 166 to 168 °C.

Take `CC(C)(C)OC(=O)COC1=CC(=O)c2ccccc2C1=O` [YL2-013, tert-Butyl 2-(1,4-dioxo-1,4-dihydronaphthalen-2-yloxy)acetate]: the melting point was in the range of 120 to 122 °C. Also, the IC50 in series [1] (setting [3]) is > 10 µM.

Consider `CCOC(=O)CSc1cc(NS(=O)(=O)c2ccccc2)c2ccccc2c1O` [YG1-113, Ethyl 2-(1-hydroxy-4-(phenylsulfonamido)naphthalen-2-ylthio)acetate], for which the melting point was 118 to 120 °C. In addition, the “proteasome inhibitory activity” value in series [1] is listed as “reduced compared to acid analogues”. Besides, in series [1] (setting [3]), the IC50 was 1.74 µM and 7 µM and 8.7 µM and 2.75 µM and 6.4 µM.

With `O=C(O)c1ccccc1Sc1cc(NS(=O)(=O)c2ccc(-c3ccccc3)cc2)c2ccccc2c1O` [YG1-168, 2-(4-(biphenyl-4-ylsulfonamido)-1-hydroxynaphthalen-2-ylthio)benzoic acid], the melting point is 205 °C (dec.). The IC50 in series [1] (setting [3]) was 2.32 µM and 2.44 µM and 1.84 µM.

Consider `O=C(O)CSC1=CC(=NS(=O)(=O)c2cccs2)c2ccccc2C1=O` (stereo in doubt) [YG2-176, (Z)-2-(1-oxo-4-(thiophen-2-ylsulfonylimino)-1,4-dihydronaphthalen-2-ylthio)acetic acid], for which, in series [1], the “proteasome inhibitory activity” value is listed as “comparable inhibitory potency”. The IC50 in series [1] (setting [3]) was 2.28 µM and 2.12 µM and 2.4 µM; in series [1] (setting [4]), 2.27 µM; in series [2] (setting [5]) it was 8.9 µM and 6.9 µM.

In the case of `O=C(O)CSc1cc(NS(=O)(=O)c2cc(Cl)c(Cl)s2)c2ccccc2c1O` [HL4-098-2, 2-(4-(4,5-dichlorothiophene-2-sulfonamido)-1-hydroxynaphthalen-2-ylthio)acetic acid], the IC50 in series [1] (setting [3]) was 1.05 µM and 2.4 µM and 2.67 µM; in series [2] (setting [5]), 25 µM and 17.4 µM.

Take `CN(C)C1=C/C(=N\S(=O)(=O)c2cccs2)c2ccccc2C1=O` [YG1-125, N-(3-(dimethylamino)-4-oxonaphthalen-1(4H)-ylidene)thiophene-2-sulfonamide]: the half-inhibitory concentration (IC50) in series [1] (setting [3]) is > 10 µM.

Turning to `CCOC(=O)CSc1cc(NS(=O)(=O)c2ccc([N+](=O)[O-])cc2)c2ccccc2c1O` [YG1-148F5, Ethyl 2-(1-hydroxy-4-(4-nitrophenylsulfonamido)naphthalen-2-ylthio)acetate], the “proteasome inhibitory activity” value in series [1] was “slightly enhanced the activity”. Further, the half-inhibitory concentration (IC50) in series [1] (setting [3]) was 0.82 µM and 4.55 µM and 5.36 µM.

For `CCSc1cc(NS(=O)(=O)c2cccs2)c2ccccc2c1O` [YG2-087-1, N-(3-(ethylthio)-4-hydroxynaphthalen-1-yl)thiophene-2-sulfonamide], the “proteasome inhibitory activity” value in series [1] was “the inhibitory activity totally lost”.

Turning to `O=S(=O)(Nc1cc(Br)c(O)c2ccccc12)c1cccs1` [YG1-034, N-(3-bromo-4-hydroxynaphthalen-1-yl)thiophene-2-sulfonamide], in series [1] (setting [3]), the IC50 was > 30 µM and > 100 µM and 28 µM.

Turning to `O=C(O)CCSc1cc(NS(=O)(=O)c2cccs2)c2ccccc2c1O` [YG1-116, 3-(1-hydroxy-4-(thiophene-2-sulfonamido)naphthalen-2-ylthio)propanoic acid], the melting point was 185 °C (dec.). Also, in series [1], the “proteasome inhibitory activity” value is “the inhibitory activity diminished”. Besides, the IC50 in series [1] (setting [3]) was 7.4 µM.

In the case of `O=S(=O)(Nc1ccc(O)c2ccccc12)c1cccs1` [YG1-004, N-(4-hydroxynaphthalen-1-yl)thiophene-2-sulfonamide], the “Chymotrypsin-like Activity Inhib at 100 μM” value in series [1] (100 μM) was 44% and 67%. Also, the “proteasome inhibitory activity” value in series [1] is on record as “loss of the inhibitory activity”. The IC50 in series [1] (setting [3]) was > 30 µM and > 100 µM and 35 µM.

With `O=C1C(Cl)=C/C(=N\S(=O)(=O)c2cccs2)c2ccccc21` [YG2-133-2], the IC50 in series [1] (setting [3]) is 4.25 µM and 2.75 µM.
